Laboratory results taken from patent publication US20160002667A1, “PSEUDOMONAS EXOTOXINS FOR CANCER TREATMENT” (RUSH UNIVERSITY MEDICAL CENTER, priority 2013, published 2016).

Legend:
[1] = tested on: various cancer cell lines; test: Propidium iodide time-lapse cytotoxicity / mean time to death in various cancer cell lines infected with P. aeruginosa expressing exotoxin; type: cell-based; conditions: listed cancer cell lines, FIG. 4
Experimental: FIG. 4 is a table summarizing the effect of Pseudomonas exotoxins on various cancer cell lines. Pseudomonas exotoxins are able to kill a variety of cancer cell lines. Listed cell lines were infected with Pseudomonas aeruginosa expressing either ExoU, ExoS, or ExoT in the presence of the cell death dye propidium iodide and observed by time-lapse videomicroscopy. Based on PI staining analysis, the mean time to death was determined for each cell line. […] (ND: no death).
For example, ExoU kills 100% of highly metastatic breast cancer cell line 4T1 within 2-3 hours, as indicated by propidium iodide (PI) staining (red) in FIG. 1.

[2] = tested on: 4T1 metastatic breast cancer cells; type: cell-based; conditions: cisplatin 50 uM, PI fluorescence
Experimental: The cell death stain propidium iodide (PI) was added and the cells were observed by time-lapse videomicroscopy. Cytotoxicity was determined by measuring the PI fluorescence intensity at each time point using ImageJ (NIH).
Cells were observed by time-lapse videomicroscopy in the presence of the cell death dye propidium iodide.

HeLa cells = test: Apoptosis and apoptotic compensatory proliferation signaling; type: cell-based
From the text: It has long been postulated that dying cells induce compensatory proliferation in neighboring cells as a means to control homeostasis and maintain tissue integrity but the players and the mechanisms involved in the compensatory proliferation signaling have remained unknown.

B16 cells = test: Cell motility tracking by time-lapse video microscopy; type: cell-based; conditions: tracked over a 10 h period, versus GFP transfected cells
Experimental: B16 cells were transfected with ExoT, the GAP or ADPRT domain mutants or GFP vector alone. Cells were observed by time-lapse video microscopy and tracked over a 10 h period using ImageJ (NIH). The mean track length during this time is shown. […] Importantly, ExoT could have an impact on reducing metastasis of cancer cells.

[3] = tested on: cancer cells that are resistant to its cytotoxicity; test: G1 cell cycle arrest in cancer cells resistant to ExoT cytotoxicity; type: cell-based; conditions: all cancer cells examined that are resistant to ExoT cytotoxicity
From the text: (v) Exotoxin T is also a potent anti-proliferative agent. […] This feature can be quite useful in combination therapy.

A375 cells [4] = test: Mitotic events by time-lapse video microscopy after transfection; type: cell-based; conditions: vector alone ~33%
From the text: A375 cells were transfected with ExoT, the GAP or ADPRT domain mutants or GFP vector alone. Cells were observed by time-lapse video microscopy. The number of mitotic events per cells in each field of view was counted.

A375 cells [5] = type: cell-based; conditions: versus GAP domain alone, GAP/ADPRT double mutant or GFP alone
Experimental: B16 and A375 cells were transfected with either GFP-fused ExoT, GAP and/or ADPRT domain mutants or GFP vector alone. Cytotoxicty was determined by positive propidium iodide staining.
We also discovered that ExoT is effective in killing the melanoma cell lines B16 and A375. B16 cells shown here were transfected with either a GFP expressing vector or ExoT directly fused to GFP. Cells were imaged in the presence of the cell death dye propidium iodide and observed by time-lapse videomicroscopy.

[6] = synthetic substrate; cited from earlier work
A375 melanoma cells = test: Proliferation by phase time-lapse videomicroscopy after transfection; type: cell-based
Rho, Rac, and Cdc42 = conditions: cited from earlier work

Row | Substance | speed of killing and potency (mean time to death by PI staining) [1] | cytotoxicity compared with cisplatin [2] | apoptosis (HeLa cells; HeLa) | formation of compensatory complexes and induction of proliferation in surrounding cells (HeLa cells; apoptotic HeLa cells) | mean track length (B16 cells) | cell cycle arrest [3] | mitotic cells (A375 cells [4]) | cytotoxicity (positive propidium iodide staining) (A375 cells [5]) | ADPRT activity in vitro compared to ExoS [6] [%] | cell division (A375 melanoma cells) | GAP activity in vitro (Rho, Rac, and Cdc42)
1 | ExoS | fastest killing and greatest potentcy | more potent cytotoxicity than cisplatin | – | – | – | – | – | – | – | – | –
2 | ExoT | less potent and unable to kill some cell lines | more potent cytotoxicity than cisplatin | induces potent apoptosis | interferes with the ability of apoptotic HeLa cells to form compensatory complexes and induce proliferation in the surrounding cells | significantly shorter track lengths | complete G1cell cycle arrest | complete block of mitotic cells | significantly greater cytotoxicity | 0.2 | blocked cell division | –
3 | R149K: ExoT with the invariant arginine of the GAP domain mutated to lysine | – | – | – | – | – | – | – | – | – | – | complete loss of GAP activity
